{"source": "patent US10858305B2", "about": "“Perillyl alcohol-3-bromopyruvate conjugate and methods of treating cancer” (NeOnc Technologies, Inc., priority 2016, dated 2020)", "type_in_all_cases": "cell-based, human", "key": {"[1]": {"test_system": "HCT116 colon cancer cells", "experiment": "Cellular ATP content assay", "settings": "100 nM rotenone in glucose-free medium", "experimental": "HCT116 cells were treated with 40 μM 3-BP or NEO218. As a point of reference, cells were also exposed to 100 nM rotenone in glucose-free medium. ATP levels were determined after 3 and 6 hours. ATP levels in untreated cells were set at 100% (corresponding to 26.6 nmol per one million cells).\nHCT116 colon cancer cells were treated cells with: NEO218, 3-BP; rotenone (a mitochondrial poison that blocks the respiratory chain); medium without glucose (“no gluc”; in order to shut down glycolysis); and, rotenone in combination with absent glucose (to cease all intracellular ATP production). After 3 hours of treatment, a commercially available ATP detection assay kit was employed to determine the relative levels of ATP present.\nATP content of cells was measured with the ATP Colorimetric/Fluorometric Assay kit (Biovision Inc., Milpitas, Calif.), which utilizes the phosphorylation of glycerol to generate a product that is quantified by colorimetry at 570 nm. Approximately 1×10^6 cells were cultured in 10-cm tissue culture plates, exposed to drug treatment for various time periods, and then processed as per manufacturer's instructions. All ATP levels were normalized to untreated controls and presented as percentage of controls."}, "tumor cell lines": {"test_system": "tumor cell lines", "experiment": "cells", "settings": "Homo sapiens; MTT, 24 hours; POH alone; read-out: concentration required to reach IC50", "experimental": "Different tumor cell lines were treated with 3-BP mixed with POH, and the effects were compared to the effects of NEO218, as well as to 3-BP alone. The cells were treated for 24 hours, and then the MTT assay was conducted to measure cell viability."}, "[2]": {"test_system": "tumor cells (two cell lines, incl. MCF7/Dox)", "experiment": "Colony formation assay (CFA), 24 hours drug exposure (FIG. 5)", "settings": "Homo sapiens, MCF7-DOX, colonies after ten to fifteen days, read-out: IC50 (cell survival and colony formation)", "experimental": "The effect of NEO218 on tumor cell survival and colony formation relative to 3-BP, POH and 3-BP+POH was evaluated via the colony formation assay (CFA). Six hundred cells per culture well were seeded and exposed to increasing concentrations of NEO218, 3-BP, a mix of 3-BP+POH, or POH alone. After 24 hours, all drugs were removed from cells and fresh culture medium was added. Ten to fifteen days later, the surviving cells had formed colonies of descendants, which were stained and counted."}, "[3]": {"test_system": "all cell types (breast, brain, ovary, colon cancer cell lines)", "experiment": "Summary of cytotoxicity over MTT, LDH and colony formation assays (FIGS. 2-5)", "settings": "all cells", "source_text": "The tumor cell-killing potency of NEO218 was characterized by in vitro, short-term MTT assays (measuring viability of cells via determination of metabolic activity), LDH assays (measuring the release of lactate dehydrogenase as an indicator of leaky cell membranes, which are indicative of dying cells), and colony-formation assays (CFA, which determine long-term survival of drug-treated cells and their ability to spawn a colony of descendants). Several established cell lines derived from cancers of the breast were used as target cells (including MDA-MB-231; MDA-MB-468; T47D; MCF7; MCF7/Dox; BTB12), brain (T98G; U251), ovary (A2780), and colon (HCT116). In all cases, cells in culture were exposed to increasing concentrations of agents for 24 or 48 hours."}, "MDA-MB-231 cells": {"test_system": "MDA-MB-231 cells", "experiment": "MTT short-term toxicity assay in MDA-MB-231 cells", "settings": "MDA-MB-231", "experimental": "(§1) (A) MTT assay was performed after 24 hours. […] (B) LDH assay was performed after […]. LDH release by untreated cells was set to 1. Relative fold increase is shown (n=3).\n(§2) (A) MTT assay was performed after 24 hours. Viability of untreated cells was set at 100% (data points are averages of 2 experiments). (B) LDH assay was performed after 24 hours. LDH release by untreated cells was set to 1. Relative fold increase is shown (averages from 2 experiments). (C) Representative photos show typical colony formation after initial 48 hours of drug treatment. In all cases of combination treatment with 3-BP mixed with […] (3-BP+POH), the indicated concentrations refer to each individual drugs, i.e., 100 μM 3-BP+POH means that 100 μM 3-BP was combined with 100 μM POH.\nMethylthiazoletetrazolium (MTT) assays were performed as described earlier."}, "[4]": {"test_system": "MDA-MB-231 breast cancer cells", "experiment": "LDH release assay in MDA-MB-231 / breast cancer cell lines", "settings": "breast cancer cell lines, 24 hours", "experimental": "as §1, §2\nThe capacity for rapid cell killing by NEO218 relative to 3-BP, POH and 3-BP+POH was evaluated via LDH assay, where LDH release is used as a proxy for cell death.\nIn FIG. 4, Panels (a) and (b), show the results of treating breast cancer cell lines with increasing concentrations of NEO218, 3-BP, or 3-BP mixed with POH. […] In all cases a-d, the release of LDH (as a marker of cell death) was measured after 24 hours.\nDepending on the cell line, 2000 to 4000 cells per well were seeded in a volume of 50 μL into a 96-well plate. The next day, drugs ere added in an additional 50 μL of medium. At different time points (usually after 24 hours of incubation), 50 μL medium was removed and processed with the LDH Cytotoxicity Assay Kit (Thermo Fisher Scientific, Waltham, Mass.) according to the manufacturer's instructions. This kit measures extracellular LDH in culture medium using an enzymatic reaction that results in a red formazan product, which can be measured spectrophotometrically. The absorbance was measured at 490 and 680 nm. All LDH levels were normalized to untreated controls and presented as fold change of the controls."}, "[5]": {"test_system": "cleaved caspase 7, cleaved PARP, γ-H2AX in MCF7, MDA-MB-231 and HCT116 cells", "experiment": "Western blot for apoptosis markers", "settings": "STS as positive control", "experimental": "(§3) (A) FACS analysis of HCT116 cells after treatment for 2, 4, or 8 hours with vehicle, 30 μM 3-BP, 30 μM NEO218, or 1 μM staurosporine (STS). […] (B) Western blot analysis of apoptotic markers. In the top section, MDA-MB-231 cells were treated with 30 μM NEO218 or 1 μM STS for various time points. In the lower section, HCT116 cells were treated with the indicated concentrations of 3-BP, NEO218, or STS for 16 hours. In all cases cell lysates were prepared and analyzed for the well-established apoptotic markers cleaved PARP, cleaved (i.e., activated) caspase 7 (cl. C-7), and phosphorylated (i.e., active) H2AX. Actin was used as a loading control. (C) HCT116 cells were pretreated with 50 μM Z-VAD-FMK for one hour, followed by the addition of increasing concentrations of 3-BP or NEO218. Cell viability was determined by MTT assay 24 hours later. Data points are averages from n=3.\nThe capacity for NEO218 to induce apoptosis was evaluated in a series of experiments. Three different cell lines were treated 3-BP and NEO218. Drug-treated cells were harvested, and cellular lysates were analyzed by Western blot for the presence of the three well-established markers of apoptosis: • cleaved caspase 7 (cl. C7); • cleaved (cl.) vs. full-length (f.l.) PARP; and, • induction of γ-H2AX (which indicates DNA cleavage).\nThe appearance of cl. C7 and cl. PARP is indicative of ongoing apoptotic processes. In all cases, lysates were also probed for the presence of actin as a control.\nTwo breast cancer cell lines (MCF7 and MDA-MB-231) and one colon cancer cell line (HCT116) were treated with increasing concentrations of NEO218 or 3-BP. As a control, they were also treated with staurosporine (STS), a known potent inducer of apoptosis. Western blot analyses for the presence of apoptosis markers are shown in the left panels of FIG. 6.\nTotal cell lysates were analyzed by Western blot analysis as described earlier. Primary antibodies against cleaved caspase 7 and PARP were obtained from Cell Signaling Technology (Danvers, Mass.), and antibodies against actin (C-11) and MCT1 (H-1) were obtained from Santa Cruz Biotechnology (Santa Cruz, Calif.). All antibodies were used according to the manufacturers' recommendations, except that in the case of MCT1 detection, the boiling step was omitted before loading the samples onto the polyacrylamide gel. All immunoblots were repeated at least once to confirm the results."}, "HCT116 cells": {"test_system": "HCT116 cells", "experiment": "FACS analysis for annexin V and propidium iodide", "settings": "2, 4 or 8 hours of treatment", "experimental": "as §3\nIn the absence of indications that apoptotic mechanisms played a significant role in cell death induced by NEO218, necrosis was investigated as a potential key mechanism. The distinction between apoptotic and necrotic cell death was made by measuring annexin V staining (a marker of apoptosis) and PI (propidium iodide) staining (a marker of necrosis) of drug-treated cells, in comparison to non-drug-treated cells (as a control). Measurements of annexin V and PI were done by FACS analysis after 2, 4, or 8 hours of treatment. Cells were treated with NEO218, 3-BP, and staurosporine (individually), and incorporation of propidium iodide (PI, a marker of necrotic cell death) or annexin V (a marker for apoptosis) was determined by fluorescence-activated cell sorting.\nThe results are organized in FIG. 8 as follows: no treatment (top row), 3-BP (second row), NEO218 (third row), and staurosporine (bottom row).\nCharacterization of cell death was performed by flow cytometry using the Alexa Fluor® 488 Annexin V/Dead Cell Apoptosis kit (Thermo Fisher Scientific). This kit contains recombinant, green fluorophore-conjugated annexin V, which reacts with apoptotic cells, and DNA-binding, red-fluorescent propidium iodide (PI), which is impermeant to live and apoptotic cells, but stains dead cells. The different cell populations can be distinguished by green fluorescence (apoptotic cells), red fluorescence (necrotic/dead cells), and no fluorescence (live cells) during flow cytometry with 488 nm laser excitation. Control or drug-treated cells were processed as per manufacturer's instructions, followed by flow cytometry of 10,000 cells per point with an LSR II (BD Biosciences, San Jose, Calif.) at the USC Flow Cytometry Core Facility."}}, "note": "“Also recorded” adds a separate entry of the source.", "data": [{"smiles": "C=C(C)[C@H]1Cc2c(ccc3c2O[C@@H]2COc4cc(OC)c(OC)cc4[C@@H]2C3=O)O1", "note": "[rotenone]", "values": [{"measurement": "ATP level", "setting": "[1]; after six hours", "value": "about 10 % of normal"}, {"measurement": "ATP level", "setting": "[1]; within the first 3 hours, untreated = 100%", "value": "< 25", "unit": "%"}]}, {"smiles": "C=C(C)[C@@H]1CC=C(CO)CC1", "note": "[POH, perillyl alcohol]", "values": [{"measurement": "IC50", "setting": "tumor cell lines", "value": "≥ 500", "unit": "µM"}, {"measurement": "IC50", "setting": "[2]", "value": "> 1000", "unit": "µM"}, {"measurement": "IC50 of POH alone", "setting": "[3]", "value": "several hundred"}, {"measurement": "IC50 of POH alone", "setting": "MDA-MB-231 cells", "value": "approaching the millimolar range"}, {"measurement": "toxic potency by LDH release", "setting": "[4]", "value": "requires fairly high concentrations to achieve cell killing"}]}, {"smiles": "CN[C@@H]1C[C@H]2O[C@@](C)([C@@H]1OC)n1c3ccccc3c3c4c(c5c6ccccc6n2c5c31)C(=O)NC4", "note": "[staurosporine]", "values": [{"measurement": "induction of apoptosis markers (cleaved PARP, cleaved caspase 7, γ-H2AX)", "setting": "[5]", "value": "striking induction of all 3 markers of apoptosis"}, {"measurement": "induction of apoptosis markers (cleaved PARP, cleaved caspase 7, γ-H2AX)", "setting": "[5]; listed as STS", "value": "triggered pronounced cleavage of PARP, activation of C-7; also recorded: prominent appearance of apoptotic markers"}, {"measurement": "incorporation of PI (necrosis) versus annexin V (apoptosis)", "setting": "HCT116 cells", "value": "incorporation of annexin V, but very little PI"}, {"measurement": "incorporation of PI (necrosis) versus annexin V (apoptosis)", "setting": "HCT116 cells; listed as STS", "value": "moved from the lower left quadrant (=fully viable cells) to the lower right quadrant (=annexin V-positive cells)"}]}]}
